Data from publication PMC9844952 (Molecular Imaging and Biology, 2023).

Key:
[1] = molecular target: norepinephrine transporter (NET) (Homo sapiens, UniProt P23975); test: competitive 3H-NE uptake assay in SK-N-SH cells; assay type: cell-based; settings: read-out: IC50 of 3H-NE uptake; 60 min at 37°C, with pyrogallol and pargyline
mGluR2 = test: [11C]mG2P001 PET/CT in monkeys; assay type: in vivo, Cynomolgus fascicularis
human mGlu2 receptors = human mGlu2 receptors (Homo sapiens, UniProt Q14416); test: radioligand binding in transfected CHO-K1 cells; settings: glutamate 10 μM
human mGlu2 receptors, sequence (Q14416 19-872): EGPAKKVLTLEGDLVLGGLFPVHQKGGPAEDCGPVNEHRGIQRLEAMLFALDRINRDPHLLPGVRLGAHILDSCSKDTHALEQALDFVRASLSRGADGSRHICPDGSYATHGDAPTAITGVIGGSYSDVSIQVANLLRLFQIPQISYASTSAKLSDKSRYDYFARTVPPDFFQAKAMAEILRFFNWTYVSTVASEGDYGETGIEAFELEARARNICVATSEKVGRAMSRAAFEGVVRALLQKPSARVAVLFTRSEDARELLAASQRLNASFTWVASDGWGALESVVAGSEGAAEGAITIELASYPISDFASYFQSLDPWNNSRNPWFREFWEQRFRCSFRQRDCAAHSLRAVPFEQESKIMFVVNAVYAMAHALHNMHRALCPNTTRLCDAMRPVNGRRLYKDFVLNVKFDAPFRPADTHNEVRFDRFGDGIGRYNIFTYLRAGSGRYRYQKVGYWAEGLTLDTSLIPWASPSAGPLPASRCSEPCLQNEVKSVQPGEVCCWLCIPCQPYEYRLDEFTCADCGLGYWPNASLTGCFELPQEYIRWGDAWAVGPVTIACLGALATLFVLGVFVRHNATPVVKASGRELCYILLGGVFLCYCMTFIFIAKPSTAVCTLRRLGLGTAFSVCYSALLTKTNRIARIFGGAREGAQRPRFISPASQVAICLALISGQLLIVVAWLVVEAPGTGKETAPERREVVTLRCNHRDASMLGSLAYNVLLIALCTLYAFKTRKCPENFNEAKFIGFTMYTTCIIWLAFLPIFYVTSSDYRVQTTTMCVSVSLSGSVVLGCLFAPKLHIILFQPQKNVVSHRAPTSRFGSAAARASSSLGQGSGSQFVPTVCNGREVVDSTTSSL

NCI-H460 Fluc tumours [2] = test: PET of NCI-H460 Fluc tumours on chick CAM; assay type: in vivo, chicken; settings: for tumour uptake in CAM tumours: 60 min p.i.
NCI-H460 Fluc tumours [3] = assay type: in vivo, mice; settings: 60 min p.i.
S. aureus = test: in vitro binding to S. aureus
[4] = cited from earlier work
[5] = doxorubicin-induced chronic cardiotoxicity model; assay type: in vivo, C57BL/6J mice; settings: 8x3 mg/kg ip over 2 weeks
Candida albicans 14053 = test: in vitro tracer uptake, yeast control
Escherichia coli 25922 = test: in vitro tracer uptake, Gram-negative control
[6] = LogP of [99mTc]-DTPA-Collagen
[7] = in vitro stability of [99mTc]-DTPA-Collagen; settings: 50h post-incubation, Radio-TLC
[8] = blood half-life and biodistribution of [99mTc]-DTPA-Collagen
Gram-positive bacteria = test: in vitro tracer uptake, Gram-positive bacteria

norepinephrine transporter (NET), sequence (P23975 whole entry): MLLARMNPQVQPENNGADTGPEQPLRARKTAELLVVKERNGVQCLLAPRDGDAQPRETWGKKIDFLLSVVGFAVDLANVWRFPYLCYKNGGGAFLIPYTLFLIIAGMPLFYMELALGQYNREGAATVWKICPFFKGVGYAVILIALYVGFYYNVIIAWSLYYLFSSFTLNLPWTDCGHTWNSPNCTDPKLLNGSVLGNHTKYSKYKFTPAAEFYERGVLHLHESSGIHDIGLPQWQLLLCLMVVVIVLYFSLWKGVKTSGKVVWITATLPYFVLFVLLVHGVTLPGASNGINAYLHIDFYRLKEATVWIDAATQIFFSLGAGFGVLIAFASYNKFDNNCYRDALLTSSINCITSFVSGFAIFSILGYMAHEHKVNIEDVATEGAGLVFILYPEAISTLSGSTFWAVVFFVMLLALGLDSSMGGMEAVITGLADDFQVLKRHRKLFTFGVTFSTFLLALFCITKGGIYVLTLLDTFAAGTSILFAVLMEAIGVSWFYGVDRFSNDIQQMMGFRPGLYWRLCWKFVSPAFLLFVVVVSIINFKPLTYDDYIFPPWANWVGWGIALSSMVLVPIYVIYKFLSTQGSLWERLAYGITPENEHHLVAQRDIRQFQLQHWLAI

N=C(N)NCc1cccc(I)c1 [MIBG, meta-iodobenzylguanidine] showed an IC50 [1] of 1.75 ± 0.47 µM.

In the case of Cn1c(CN2CCC(c3ccc(C(F)(F)F)cc3O[11CH3])CC2)nc2ncccc21 [[11C]mG2P001, 2-((4-(2-[^11C]methoxy-4-(trifluoromethyl)phenyl)piperidin-1-yl)methyl)-1-methyl-1H-imidazo[4,5-b]pyridine], the SUVmax in brain (mGluR2; at 15 min) is reported as over 3, the “enhancement of accumulation (Logan VT)” value (mGluR2; representative study, pretreatment with 0.6 mg/kg mG2P001 iv) is reported as 33% and the “maximum enhancement of specific binding vs control” value (human mGlu2 receptors) is reported as 2 fold.

In the case of O=C[C@H]([18F])[C@@H](O)[C@H](O)[C@H](O)CO [[18F]FDG, 18-fluorodeoxyglucose], the “tumour uptake in CAM tumours” value (NCI-H460 Fluc tumours [2]) is reported as 10.0 ± 2.1 %ID/g, the tumour-to-albumin ratio (NCI-H460 Fluc tumours [2]; i.v. ~3 MBq) is reported as 14.7 and the “tumour uptake in mice” value (NCI-H460 Fluc tumours [3]) is reported as 6.0 ± 1.4 %ID/g. The “binding to S. aureus” value (S. aureus) was 21±1%.

For N[C@@H](C[C@H](CCC[18F])C(=O)O)C(=O)O [[18F]FSPG], the “tumour uptake in CAM tumours” value (NCI-H460 Fluc tumours [2]) is given as 14.0 ± 5.5 %ID/g and the “stable in human plasma” value [4] is given as “up to 4 hours”.

In the case of COc1cccc2c1C(=O)c1c(O)c3c(c(O)c1C2=O)C[C@@](O)(C(=O)CO)C[C@@H]3O[C@H]1C[C@H](N)[C@H](O)[C@H](C)O1 [doxorubicin], the overall mortality rate [5] is reported as under 20%.

Work on “[99mTc]-DTPA-Collagen: Rat Tail Collagen I conjugated to DTPA and labeled with 99mTc” yielded an in vitro uptake (Candida albicans 14053) of 12±3%, an in vitro uptake (Escherichia coli 25922) of 9±2% and a LogP [6] of -3.69±0.58. For the same molecule, the stability [7] was “higher than 90%”, the blood circulation half-life ([8]; blood extraction) was 19 ± 2 min and the “liver uptake, ex vivo” value ([8]; rat, in vivo) was 6.1±2.8 %ID/g. The “spleen uptake, ex vivo” value ([8]; rat, in vivo) was 2.1±0.2 %ID/g, the “binding to S. aureus” value (S. aureus) was 66±3% and the in vitro uptake (Gram-positive bacteria) was 63±7%.
